This note sets out measurements from US10793561B2, “1,8-naphthyridinone compounds and uses thereof” (NUVATION BIO INC., priority 2017, dated 2020).

Experiment [1] addresses T1, adenosine A2A receptor (Homo sapiens (Human), UniProt P29274). In words: cAMP assay in HEK-293 cells expressing human recombinant adenosine A2A receptor. It is filed as cell-based. The following applies: for IC50: first cAMP table; for inhibition at 0.1 µM: HEK293, 100 nM compound, read-out: A2a cAMP % inh @ 100 nM. Here is the method:
The functional activity of compounds was tested using one of the two assays to detect the present of cAMP. Activation of G-protein coupled receptors (such as A2A) results in activation of adenylcyclase which converts ATP into cAMP which is used as a downstream signaling molecule. Therefore, molecules which act as GPCR (or specifically A2A receptor) antagonists cause a decrease in intracellular cAMP concentration.
Both assays used HEK-293 cells expressing human recombinant adenosine A2A receptor were grown prior to the test in media without antibiotic. Assay 1: The cells were detached by gentle flushing with PBS-EDTA (5 mM EDTA), recovered by centrifugation and suspended in assay buffer (KRH: 5 mM KCl, 1.25 mM MgSO4, 124 mM NaCl, 25 mM HEPES, 13.3 mM Glucose, 1.25 mM KH2PO4, 1.45 mM CaCl2, 0.5 g/L BSA, supplemented with Rolipram).
12 μL of cells were mixed with 6 μL of the test compound at increasing concentrations and then incubated for 10 min. Thereafter 6 μL of the reference agonist was added at a final concentration corresponding to the historical EC80. The plates were then incubated for 30 min at room temperature. After addition of the lysis buffer and 1 hour incubation, cAMP concentrations were estimated, according to the manufacturer specification, with the HTRF® kit.
Assay 2: 100 nL of test articles at 100× of final concentration were transferred to assay plate by Echo. Cells were washed twice with 5 mL of PBS […]. After aspirating the PBS and adding 1.5 mL versine, cells were incubated at 37° C. for 2-5 min. After centrifugation, 4 mL of medium was added and adjusted cell density to 5,000 cells/well with stimulation buffer. 10 μL of cells were aliquoted to the assay plate, centrifuged at 1000 rpm for 1 minute, and incubated for 60 minutes at room temperature. 5 μL 4× Eu-cAMP tracer solution and 5 μL 4× Ulight™-anti-cAMP solution were added to assay plate, followed by centrifugation and 60-minute incubation at room temperature. Plates were read on EnVision.

A further experiment addresses adenosine A3 receptor (Homo sapiens (Human), UniProt P0DMS8). In words: Radioligand binding competition assay, adenosine A3 receptor (CHO-K1-A3 cell membranes). The following applies: 300 nM compound. On the procedure:
(§1) Binding of selected compounds to the adenosine A1, A2A, A2B, and A3 receptors was tested using a binding competition assay.
(§2) The general protocol for the radioligand binding competition assay was as follows. Competition binding was performed in duplicate in the wells of a 96 well plate (Master Block, Greiner, 786201) containing binding buffer (optimized for each receptor), membrane extracts (amount of protein/well optimized for each receptor), radiotracer (final concentration optimized for each receptor), and test compound. Nonspecific binding was determined by co-incubation with 200-fold excess of cold competitor. The samples were incubated in a final volume of 0.1 mL at 25° C. for 60 minutes and then filtered over filter plates. Filters were washed six times with 0.5 mL of ice-cold washing buffer (optimized for each receptor) and 50 μL of Microscint 20 (Packard) were added on each filter. The filter plates were sealed, incubated 15 min on an orbital shaker and scintillation counted with a TopCount for 30 sec/filter.
For the adenosine A3 radioligand binding competition assay, the following reagents were used:
(§3) CHO-K1-A3 cell membranes, 1.5 μg/well; a binding buffer comprising HEPES 25 mM pH 7.4, MgCl2 5 mM, CaCl2 1 mM, 0.5% BSA; a wash buffer comprising HEPES 25 mM pH 7.4, MgCl2 5 mM, CaCl2 1 mM; a Unifilter GF/C—treated for 2 h with 0.5% BS; and 0.4 nM of ^125I-AB-MECA as the tracer. The results of the binding assay are shown in Table B1-1 and are shown as percent residual binding at a given concentration. Percent of residual binding means binding of a compound in the presence of competitor normalized to the amount of binding in the absence of competitor. […] For example, compound 1 strongly bound to A2A (30% residual binding at a concentration of 100 nM), A1 (−3% residual binding at 300 nM) and A2B, (−9% residual binding at 300 nM) but weakly bound to A3 (96% residual binding at 300 nM).

A further experiment has as its target adenosine A2B receptor (Homo sapiens (Human), UniProt P29275). In words: Radioligand binding competition assay, adenosine A2B receptor (HEK-293-A2b cell membranes). Particulars: 300 nM compound. On the procedure: as §1, §2
Similarly, the following reagents were used for the adenosine A2B radioligand binding competition assay: HEK-293-A2b cell membranes, 20 μg/well, preincubated 30 min at RT with […] Adenosine Deaminase; a binding buffer comprising HEPES 10 mM pH7.4, EDTA 1 mM, 0.5% BSA; a wash buffer comprising HEPES 10 mM pH7.4, EDTA 1 mM; a Unifilter GF/C—treated for 2 h with 0.5% PEI; and 10 nM ^3H-DPCPX as the tracer.
as §3

Experiment [2] concerns the target T1, adenosine A2A receptor. In words: Radioligand binding competition assay, adenosine A2A receptor. The following applies: for A2A radioligand binding competition assay % residual binding @ 100 nM: 100 nM compound; for A2A radioligand binding competition assay % residual binding @ 300 nM: 300 nM compound; for A2A radioligand binding competition assay % residual binding @ 1000 nM: 1000 nM compound; for A2A radioligand binding competition assay % residual binding @ 3000 nM: 3000 nM compound. On the procedure:
as §1, §2
For the adenosine A2A receptor radioligand binding assay, the following modifications were made to the general protocol. GF/C filters (Perkin Elmer, 6005174), presoaked in 0.01% Brij for 2 h at room temperature were used. Filters were washed six times with 0.5 mL of ice-cold washing buffer (50 mM Tris pH 7.4) and 50 μL of Microscint 20 (Packard) was added in each well. The plates were then incubated for 15 min on an orbital shaker and then counted with a TopCount™ for 1 min/well.
Another radioligand binding assay was used to evaluate the binding affinity for the adenosine A2A receptor assay was performed in duplicate in the wells of a 384 plate. Assay buffer contained DPBS 500 mM, MgCl2 0.1 mM, and 1% DMSO. Membrane-bead suspension was prepared by mixing 25.98 μL of human adenosine A2A membrane preparation (Perkin Elmer, RBHA2AM400UA) at 33.4 pg/mL, 28 μL of ADA at 20 pg/mL, and 932 μL of SPA beads at 3.33 mg/mL) and incubated the mixture for 20 min at room temperature. Mixed 20 μL of radiotracer (^3H-SCH 58261) at 15 nM to each well containing test articles at various concentrations and centrifuge the plate at 1000 rpm for 1 minute. Added 30 μL of the membrane-bead suspension to each well. Sealed the plates and incubated for 1 hr at room temperature with vigorous mixing on a plate mixer. Plates were read on Microbeta^2 (Perkin Elmer, 2450-0010).
as §3

The next experiment has as its target adenosine A1 receptor (Homo sapiens (Human), UniProt P30542). The experiment is described as follows: Radioligand binding competition assay, adenosine A1 receptor (CHO-K1-A1 cell membranes). The following applies: 300 nM compound. Here is the method: as §1, §2
For the adenosine A1 radioligand binding competition assay, a similar procedure was used except that the following reagents were used: CHO-K1-A1 cell membranes; binding buffer comprising HEPES 25 mM pH 7.4, MgCl2 5 mM, CaCl2 1 mM, NaCl 100 mM, saponin 10 µg/mL; wash buffer comprising HEPES 25 mM pH 7.4, MgCl2 5 mM, CaCl2 1 mM, NaCl 100 mM; Unifilter GF/B—treated for 2 h with 0.5% PEI was the filter; and 1.6 nM of ^3H-DPCPX was the tracer.
as §3

Sequence of adenosine A2B receptor (P29275 whole entry): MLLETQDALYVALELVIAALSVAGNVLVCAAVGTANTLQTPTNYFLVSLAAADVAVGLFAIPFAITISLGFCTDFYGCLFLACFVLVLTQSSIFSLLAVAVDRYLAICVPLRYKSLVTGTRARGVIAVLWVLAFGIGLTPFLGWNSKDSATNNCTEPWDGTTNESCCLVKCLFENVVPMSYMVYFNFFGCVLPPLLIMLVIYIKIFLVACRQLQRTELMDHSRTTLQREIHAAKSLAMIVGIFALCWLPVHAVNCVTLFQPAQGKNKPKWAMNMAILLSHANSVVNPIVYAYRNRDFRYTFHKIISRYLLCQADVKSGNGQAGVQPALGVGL
T1 sequence (P29274 whole entry): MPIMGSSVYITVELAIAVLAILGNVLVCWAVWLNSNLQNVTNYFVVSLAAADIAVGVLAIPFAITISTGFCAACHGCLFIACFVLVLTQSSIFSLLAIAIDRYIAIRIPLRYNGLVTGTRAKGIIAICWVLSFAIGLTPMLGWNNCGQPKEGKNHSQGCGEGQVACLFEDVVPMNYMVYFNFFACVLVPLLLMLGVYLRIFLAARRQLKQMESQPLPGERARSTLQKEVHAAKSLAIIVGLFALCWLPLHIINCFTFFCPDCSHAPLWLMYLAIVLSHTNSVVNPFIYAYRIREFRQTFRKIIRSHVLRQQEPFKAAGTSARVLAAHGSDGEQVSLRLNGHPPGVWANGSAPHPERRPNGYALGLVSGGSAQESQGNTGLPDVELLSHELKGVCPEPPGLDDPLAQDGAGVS
Sequence of adenosine A3 receptor (P0DMS8 whole entry): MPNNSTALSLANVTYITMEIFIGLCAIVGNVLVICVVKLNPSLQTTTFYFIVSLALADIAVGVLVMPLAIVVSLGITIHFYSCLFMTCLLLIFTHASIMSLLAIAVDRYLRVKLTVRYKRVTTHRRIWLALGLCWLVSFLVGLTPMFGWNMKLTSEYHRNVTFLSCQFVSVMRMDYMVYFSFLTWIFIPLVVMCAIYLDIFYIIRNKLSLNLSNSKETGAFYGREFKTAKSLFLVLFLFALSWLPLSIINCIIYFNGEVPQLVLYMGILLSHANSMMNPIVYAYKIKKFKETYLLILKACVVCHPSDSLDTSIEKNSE
Sequence of adenosine A1 receptor (P30542 whole entry): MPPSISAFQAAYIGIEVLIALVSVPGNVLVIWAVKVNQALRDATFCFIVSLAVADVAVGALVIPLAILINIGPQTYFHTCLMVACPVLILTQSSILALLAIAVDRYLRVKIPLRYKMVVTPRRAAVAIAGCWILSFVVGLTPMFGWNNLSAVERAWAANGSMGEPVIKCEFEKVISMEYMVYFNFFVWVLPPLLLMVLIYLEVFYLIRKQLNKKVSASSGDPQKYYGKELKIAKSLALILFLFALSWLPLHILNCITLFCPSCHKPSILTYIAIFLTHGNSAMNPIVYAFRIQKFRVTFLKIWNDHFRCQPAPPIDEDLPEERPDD

`O=c1cc[nH]c2nc(-c3ccccc3)c(-c3ccc4ncccc4c3)cc12` [1.5, 7-phenyl-6-(quinolin-6-yl)-1,8-naphthyridin-4(1H)-one]: on adenosine A2A receptor [1], the IC50 is 23 nM. The “Radioligand binding competition assay % residual binding @ 300 nM (A3)” value on adenosine A3 receptor amounted to 104%. Also, the “Radioligand binding competition assay % residual binding @ 300 nM (A2b)” value at adenosine A2B receptor is recorded as 2%. In addition, on adenosine A2A receptor [2], the IC50 is 181 nM, the “A2A radioligand binding competition assay % residual binding @ 100 nM” value was found to be 74%, the “A2A radioligand binding competition assay % residual binding @ 300 nM” value was 38% and the “A2A radioligand binding competition assay % residual binding @ 1000 nM” value came to 12%. In addition, the “A2A radioligand binding competition assay % residual binding @ 3000 nM” value on adenosine A2A receptor [2] stood at 22%. Also, the “Radioligand binding competition assay % residual binding @ 300 nM (A1)” value at adenosine A1 receptor came out at 11%.

Turning to `O=c1cc[nH]c2nc(-c3ccccc3)c(-c3ccc4[nH]cnc4c3)cc12` [Compound No. 1.7, 6-(1H-benzo[d]imidazol-5-yl)-7-phenyl-1,8-naphthyridin-4(1H)-one], at adenosine A2A receptor [1], the inhibition at 0.1 µM came out at 81%. For the same compound, the “Radioligand binding competition assay % residual binding @ 300 nM (A3)” value on adenosine A3 receptor is on record as 84%. Moreover, the “Radioligand binding competition assay % residual binding @ 300 nM (A2b)” value on adenosine A2B receptor was determined as 0%. At adenosine A2A receptor [2], the “A2A radioligand binding competition assay % residual binding @ 100 nM” value worked out at 52%, the “A2A radioligand binding competition assay % residual binding @ 300 nM” value is given as 33%, the “A2A radioligand binding competition assay % residual binding @ 1000 nM” value stood at 21% and the “A2A radioligand binding competition assay % residual binding @ 3000 nM” value is 18%. Moreover, the “Radioligand binding competition assay % residual binding @ 300 nM (A1)” value at adenosine A1 receptor was 7%.

For `O=c1cc[nH]c2nc(-c3ccco3)c(-c3ccc4ncccc4c3)cc12` [Compound No. 1.14, 7-(furan-2-yl)-6-(quinolin-6-yl)-1,8-naphthyridin-4(1H)-one], at adenosine A2A receptor [1], the inhibition at 0.1 µM was found to be 94%. The “Radioligand binding competition assay % residual binding @ 300 nM (A3)” value on adenosine A3 receptor stood at 87%. For the same compound, on adenosine A2B receptor, the “Radioligand binding competition assay % residual binding @ 300 nM (A2b)” value is reported as 0%. Also, at adenosine A2A receptor [2], the IC50 was found to be 33 nM and the “A2A radioligand binding competition assay % residual binding @ 3000 nM” value is listed as 5/ND/ND/ND %. The “Radioligand binding competition assay % residual binding @ 300 nM (A1)” value on adenosine A1 receptor came out at 13%.

As for `O=c1cc[nH]c2nc(-c3ccccc3)c(-c3ccc(O)c(Cl)c3)cc12` [1.2, 6-(3-chloro-4-hydroxy-phenyl)-7-phenyl-1H-1,8-naphthyridin-4-one], the IC50 at adenosine A2A receptor [1] is 22 nM. Further, at adenosine A3 receptor, the “Radioligand binding competition assay % residual binding @ 300 nM (A3)” value was determined as 83%. For the same compound, the “Radioligand binding competition assay % residual binding @ 300 nM (A2b)” value on adenosine A2B receptor was 0%. For the same compound, at adenosine A2A receptor [2], the “A2A radioligand binding competition assay % residual binding @ 100 nM” value is 77% and the “A2A radioligand binding competition assay % residual binding @ 300 nM” value stood at 60%. On adenosine A1 receptor, the “Radioligand binding competition assay % residual binding @ 300 nM (A1)” value is 0%.

Regarding `O=c1ccc2cc(-c3ccc(O)c(Cl)c3)c(-c3ccccc3)nc2[nH]1` [1.1, 6-(3-chloro-4-hydroxy-phenyl)-7-phenyl-1H-1,8-naphthyridin-2-one], on adenosine A2A receptor [1], the IC50 came out at 61 nM. The “Radioligand binding competition assay % residual binding @ 300 nM (A3)” value at adenosine A3 receptor amounted to 95%. Also, at adenosine A2B receptor, the “Radioligand binding competition assay % residual binding @ 300 nM (A2b)” value is given as 17%. Moreover, at adenosine A2A receptor [2], the “A2A radioligand binding competition assay % residual binding @ 100 nM” value was 83% and the “A2A radioligand binding competition assay % residual binding @ 300 nM” value was 54%. Further, the “Radioligand binding competition assay % residual binding @ 300 nM (A1)” value at adenosine A1 receptor is on record as 1.6%.
